System: KRAS PDC multicell spheroid viability
Assay: Anticancer human tumor 825966-067-R-J1-PDC patient-derived colon carcinoma cell line growth inhibition [KRAS2]
Conditions: for IC50: curve of first compound; for viability, T/C: stronger effect = lower value
Description: Multicellular complex tumor spheroid response to RAS pathway inhibitors in combination with a targeted agents in patient-derived cell lines with oncogenic KRAS variants from multiple cancer types
A high-throughput screen of multi-cell type tumor spheroids was designed to identify active combinations of targeted small molecules and KRAS pathway inhibitors. Complex spheroids include a stromal component modeled by human endothelial cells (HUVEC) and fibroblasts modeled by human mesenchymal stem cells (MSCs). The concentration ranges selected for each drug and investigational agent were based upon clinically achievable concentrations if the clinical Cmax of the agent was known.
Compounds. The drugs and investigational agents: BI-3406 (NSC825286), BAY-293 (NSC824723), batoprotafib (TNO155; NSC825523), sotorasib (AMG 510; NSC818433), MRTX1257 (NSC819558), elimusertib (BAY 1895344; NSC800525), molibresib (GSK525762; NSC774829), temuterkib (LY3214996; NSC803410), venetoclax (NSC766270), alisertib (NSC759677), olaparib (NSC753686), talazoparib (NSC767125), erdafitinib (NSC781556), ipatasertib (NSC767898), cabozantinib (NSC761068), nintedanib (NSC756659), abemaciclib (NSC768073), docetaxel (NSC628503), trametinib (NSC758246), and sapanisertib (NSC764658) were obtained from the National Cancer Institute (NCI) Developmental Therapeutics Program Chemical Repository. The FDA-approved anticancer drug set is available from the Developmental Therapeutics Program. […] The stock solutions were prepared in dimethyl sulfoxide (DMSO, Sigma-Aldrich, St. Louis, MO, cat. D2650) at 800-fold the tested concentration and stored at -70 degrees C prior to their use. All drugs and investigational agents were tested over a range starting from a high concentration at or near the clinical Cmax and decreasing in half-log increments. If the clinical Cmax for an agent had not been determined, the highest concentration tested was 10 microM.
Cell Culture. All cells were maintained in an incubator at 37 degrees C and 5% CO2 with 95% humidity. The PDC lines were cultured according to standard operating procedures established by the NCI PDMR (https://pdmr.cancer.gov/sops/default.htm). Briefly, all PDCs were thawed and cultured in Matrigel-coated flasks prepared with a working solution of 1X Ham's F-12 nutrient mix, without supplementation (Invitrogen, Waltham, MA, cat. 11765054), 100 U/mL penicillin-streptomycin (Invitrogen, cat. 15140122), and 2.5% Matrigel (Corning Inc., Corning, NY, cat. 354248) for the first three passages. All PDCs were cultured in complete DMEM/F-12 media containing advanced DMEM/F-12 (Invitrogen, cat. 12634028), 4.9% defined fetal bovine serum, heat inactivated (HyClone Laboratories Inc., Logan, UT, cat. SH30070.03HI), 389 ng/mL hydrocortisone (Sigma-Aldrich, cat. H4001), 9.7 ng/mL human EGF recombinant protein (Invitrogen, cat. PHG0313), 23.4 microg/mL adenine (Sigma-Aldrich, cat. A2786), 97.3 U/mL penicillin-streptomycin (Invitrogen, cat. 15140122), 1.9 mM L-glutamine (Invitrogen, cat. 25030081), and 9.7 microM Y-27632 dihydrochloride (Tocris Bioscience, Bristol, United Kingdom, cat. 1254). The PDCs were cultured in complete DMEM/F12 media without 9.7 microM Y-27632 dihydrochloride for at least two passages prior to the screen. The established cell line HOP-62 was cultured in RPMI 1640 medium, HEPES (Invitrogen, cat. 22400105) with 10% defined fetal bovine serum (HyClone Laboratories Inc., cat. SH30070.03) and 2 mM L-glutamine (Invitrogen, cat. 25030081). The pooled donor HUVEC were cultured in endothelial cell growth medium 2 (PromoCell, Heidelberg, Germany, cat. C-22011) and the hMSC were cultured in mesenchymal stem cell growth medium 2 (PromoCell, cat. C-28009). For all experiments, HUVEC and hMSC were used at passages </=5, while the malignant cell lines were used at passages </=15. […]
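Further: spheroids exposed to compounds for 7 days.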
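Wherever viability, T/C is given: 100% = DMSO vehicle control viability.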

What does the source list for `CC(=O)Nc1cccc(-n2c(=O)n(C3CC3)c(=O)c3c(Nc4ccc(I)cc4F)n(C)c(=O)c(C)c32)c1` + C=CC(=O)N1CCN(c2nc(=O)n(-c3c(C)ccnc3C(C)C)c3nc(-c4c(O)cccc4F)c(F)cc23)C(C)C1?
IC50 (second compound 0.1 µM): 17 nM; IC50 (second compound 0.316 µM): 22.8 nM; IC50 (second compound 1 µM): > 31.6 nM; IC50 (second compound 3.16 µM): 27.5 nM; IC50 (second compound 10 µM): 14.1 nM; viability, T/C (second compound 0.1 µM, first compound 0.0001 µM): 91.9%; viability, T/C (second compound 0.1 µM, first compound 0.000316 µM): 84.9%; viability, T/C (second compound 0.1 µM, first compound 0.001 µM): 99.5%; viability, T/C (second compound 0.1 µM, first compound 0.00316 µM): 128%; viability, T/C (second compound 0.1 µM, first compound 0.01 µM): 72.5%; viability, T/C (second compound 0.1 µM, first compound 0.0316 µM): 23.7%; viability, T/C (second compound 0.316 µM, first compound 0.0001 µM): 84.8%; viability, T/C (second compound 0.316 µM, first compound 0.000316 µM): 82.7%; viability, T/C (second compound 0.316 µM, first compound 0.001 µM): 111%; viability, T/C (second compound 0.316 µM, first compound 0.00316 µM): 129%; viability, T/C (second compound 0.316 µM, first compound 0.01 µM): 95.6%; viability, T/C (second compound 0.316 µM, first compound 0.0316 µM): 31.8%; viability, T/C (second compound 1 µM, first compound 0.0001 µM): 92.2%; viability, T/C (second compound 1 µM, first compound 0.000316 µM): 89.4%; viability, T/C (second compound 1 µM, first compound 0.001 µM): 99.8%; viability, T/C (second compound 1 µM, first compound 0.00316 µM): 114%; viability, T/C (second compound 1 µM, first compound 0.01 µM): 102%; viability, T/C (second compound 1 µM, first compound 0.0316 µM): 52.5%; viability, T/C (second compound 3.16 µM, first compound 0.0001 µM): 72.2%; viability, T/C (second compound 3.16 µM, first compound 0.000316 µM): 97.7%; viability, T/C (second compound 3.16 µM, first compound 0.001 µM): 95.4%; viability, T/C (second compound 3.16 µM, first compound 0.00316 µM): 97.3%; viability, T/C (second compound 3.16 µM, first compound 0.01 µM): 80.2%; viability, T/C (second compound 3.16 µM, first compound 0.0316 µM): 45.9%; viability, T/C (second compound 10 µM, first compound 0.0001 µM): 81.3%; viability, T/C (second compound 10 µM, first compound 0.000316 µM): 89.5%; viability, T/C (second compound 10 µM, first compound 0.001 µM): 77.3%; viability, T/C (second compound 10 µM, first compound 0.00316 µM): 101%; viability, T/C (second compound 10 µM, first compound 0.01 µM): 55.2%; viability, T/C (second compound 10 µM, first compound 0.0316 µM): 37.6%
